Earlier results as cited in article PMC8397297 (ACS Chemical Neuroscience, 2021).
Like-named read-outs stand apart in the source and are kept apart here.

How the values were obtained:
mGAT1 [1] = target: T1, mGAT1 (Mus musculus, UniProt P31648); conditions: Figure 2; cited from earlier work
T1 construct: expressed in transfected cells; host or cells: HEK-293

mGAT4 = target: T2, mGAT4 (Mus musculus, UniProt P31650); conditions: cited from earlier work
T2 construct: expressed in transfected cells; host or cells: HEK-293
T2 sequence (P31650 1-627): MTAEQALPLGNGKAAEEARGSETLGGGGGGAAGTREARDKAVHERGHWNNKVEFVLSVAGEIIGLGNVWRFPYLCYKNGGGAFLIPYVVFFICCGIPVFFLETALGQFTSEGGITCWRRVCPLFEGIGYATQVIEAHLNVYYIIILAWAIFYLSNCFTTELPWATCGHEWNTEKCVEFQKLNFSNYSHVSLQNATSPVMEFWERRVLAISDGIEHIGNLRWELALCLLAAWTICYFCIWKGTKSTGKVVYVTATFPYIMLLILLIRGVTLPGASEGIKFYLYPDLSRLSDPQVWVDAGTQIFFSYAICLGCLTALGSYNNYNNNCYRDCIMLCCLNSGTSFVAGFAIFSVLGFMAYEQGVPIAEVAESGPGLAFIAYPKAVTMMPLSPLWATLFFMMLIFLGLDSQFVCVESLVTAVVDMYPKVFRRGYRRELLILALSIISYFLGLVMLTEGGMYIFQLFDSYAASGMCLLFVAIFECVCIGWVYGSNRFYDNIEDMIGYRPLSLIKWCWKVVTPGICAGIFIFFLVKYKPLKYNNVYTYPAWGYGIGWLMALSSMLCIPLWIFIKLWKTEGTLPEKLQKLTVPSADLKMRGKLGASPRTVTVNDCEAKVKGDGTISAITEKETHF

mGAT2 = target: T3, mGAT2 (Mus musculus, UniProt P31651); conditions: cited from earlier work
T3 construct: expressed in transfected cells; host or cells: HEK-293
T3 sequence (P31651 1-614): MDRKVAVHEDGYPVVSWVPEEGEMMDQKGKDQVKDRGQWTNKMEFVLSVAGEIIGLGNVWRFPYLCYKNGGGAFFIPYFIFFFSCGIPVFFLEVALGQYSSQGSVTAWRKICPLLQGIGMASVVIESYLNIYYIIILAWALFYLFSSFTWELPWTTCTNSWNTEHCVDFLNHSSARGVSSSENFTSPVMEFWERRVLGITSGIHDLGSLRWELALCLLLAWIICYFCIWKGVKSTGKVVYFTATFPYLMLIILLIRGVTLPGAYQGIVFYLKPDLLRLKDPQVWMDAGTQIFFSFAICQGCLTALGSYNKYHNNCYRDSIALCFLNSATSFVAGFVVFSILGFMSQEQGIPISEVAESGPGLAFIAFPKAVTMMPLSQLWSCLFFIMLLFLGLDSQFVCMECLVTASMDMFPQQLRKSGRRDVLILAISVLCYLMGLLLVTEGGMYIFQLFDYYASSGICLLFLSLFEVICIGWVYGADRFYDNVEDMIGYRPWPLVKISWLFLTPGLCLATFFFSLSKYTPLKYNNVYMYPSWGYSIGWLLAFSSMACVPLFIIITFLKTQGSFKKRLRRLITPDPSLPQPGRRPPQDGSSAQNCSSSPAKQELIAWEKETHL

mGAT3 = target: T4, mGAT3 (Mus musculus, UniProt P31649); conditions: cited from earlier work
T4 construct: expressed in transfected cells; host or cells: HEK-293
T4 sequence (P31649 1-602): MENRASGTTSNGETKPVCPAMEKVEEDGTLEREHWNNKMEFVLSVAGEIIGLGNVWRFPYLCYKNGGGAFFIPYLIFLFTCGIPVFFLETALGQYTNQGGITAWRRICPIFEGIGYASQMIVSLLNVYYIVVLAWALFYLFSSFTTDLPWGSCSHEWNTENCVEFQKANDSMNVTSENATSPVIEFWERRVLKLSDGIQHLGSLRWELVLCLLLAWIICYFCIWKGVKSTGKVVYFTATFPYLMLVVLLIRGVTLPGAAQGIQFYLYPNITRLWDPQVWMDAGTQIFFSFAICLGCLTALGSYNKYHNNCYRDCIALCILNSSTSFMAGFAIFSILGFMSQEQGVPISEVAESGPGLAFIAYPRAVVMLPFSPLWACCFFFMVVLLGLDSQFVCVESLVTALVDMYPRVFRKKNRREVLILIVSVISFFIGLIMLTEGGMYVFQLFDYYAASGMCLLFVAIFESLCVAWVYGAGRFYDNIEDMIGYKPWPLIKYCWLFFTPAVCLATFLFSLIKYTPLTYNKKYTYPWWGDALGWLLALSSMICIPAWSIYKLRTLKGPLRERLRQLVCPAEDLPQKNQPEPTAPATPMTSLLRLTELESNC

mGAT1 [2] = target: T1, mGAT1; conditions: 100 μM inhibitor; cited from earlier work

O=C(O)[C@@H]1CCCN(CCC#Cc2ccccc2-c2ccc(F)cc2Cl)C1 [Compound 7]
pIC50 mGAT1 (mGAT1 [1]): 7.68 | pIC50 mGAT4 (mGAT4; Figure 2): 4.29 | mGAT2 % (100μM) (mGAT2; 100μM): 55% | pIC50 mGAT3 (mGAT3; Figure 2): 4.56

O=C1Nc2ccc(-c3cccs3)cc2C1=O [Compound 12]
pIC50 mGAT1 (mGAT1 [1]): < 3 | pIC50 mGAT2 (mGAT2; Figure 2): 3.21

Cc1ccsc1C(=CCCN(C)C(CCO)C(=O)NCc1ccccc1Cl)c1sccc1C (centres unmarked) [Compound 13]
remaining NO711 binding mGAT1 (mGAT1 [2]): 100 μM: 77% | pIC50 mGAT2 (mGAT2; [3H]GABA uptake): 4.98 ± 0.05 | pIC50 mGAT3 (mGAT3; [3H]GABA uptake): 5.31 ± 0.04

Cc1ccsc1C(=CCCN1CCC[C@@H](C(=O)O)C1)c1sccc1C [tiagabine, (R)-1-[4,4-bis(3-methyl-2-thienyl)-3-butenyl]-3-piperidinecarboxylic acid]
remaining [3H]GABA uptake mGAT4 (mGAT4; 100 μM inhibitor): 100 μM: 73% | mGAT4 % (100μM) (mGAT4; 100μM): 73% | remaining [3H]GABA uptake mGAT2 (mGAT2; 100 μM inhibitor): 100 μM: 52% | remaining [3H]GABA uptake mGAT3 (mGAT3; 100 μM inhibitor): 100 μM: 64% | mGAT3 % (100μM) (mGAT3; 100μM): 64%
